Measured values: US20040209956A1 (priority 2003, published 2004)

How the values were obtained:
Assay type in all cases: physicochemical
[1] = Solubility of Form II in acetonitrile/ethanol 3A mixtures; conditions: equilibrated nineteen days; for Solubility, 70/30 ACN/EtOH 3A wt. % S-[2-[(1-Iminoethyl)amino]ethyl]-2-methyl-L-cysteine: 70/30 v/v acetonitrile/ethanol 3A; for Solubility, 90/10 ACN/EtOH 3A wt. % S-[2-[(1-Iminoethyl)amino]ethyl]-2-methyl-L-cysteine: 90/10 v/v acetonitrile/ethanol 3A
From the text: Excess solids were equilibrated in these solvents at the appropriate temperature (in a shaker bath) for nineteen days. Supernatant samples were withdrawn and analyzed by HPLC for concentration of S-[2-[(1-Iminoethyl)amino]ethyl]-2-methyl-L-cysteine.

[2] = Solubility experiments in acetonitrile/water with and without excess maleic acid; conditions: 90/10 acetonitrile/water with excess maleic acid; nineteen days at 5° C.; slurry in single liquid phase, solids form II
Method: These vials were then placed in a shaker bath at 5° C. After four days of equilibration when the vials were observed, it was discovered that the system had turned from a suspension of solids in a single liquid phase to a biphasic liquid with no suspended solids. Both layers from each of the three vials were analyzed for water content (through Karl-Fischer analysis) and concentration of the compound. […] It is worth pointing out though that the exact conditions leading to measured concentrations in the top layer could only be truly established when the partitioning of excess maleic acid is established between the two layers. The bottom layer (rich in water) would most likely be under-saturated since no excess solids remained. This possibility is substantiated by the solubility data on the bottom layer, where the concentrations are found to be very similar across all the experiments. While the vial at 70/30 acetonitrile/water with excess maleic acid remained biphasic even after nineteen days, the 70/30 acetonitrile/water vial without any excess maleic acid after five days had some very large crystals floating in a solution that still seemed biphasic. […] These crystals were used to obtain crystallography data. After nineteen days of equilibration at 5° C., the 90/10 acetonitrile/water vial with excess maleic acid had turned back into a slurry of solids in a single liquid phase.

[3] = Moisture sorption of Form II by DVS moisture balance; conditions: 25° C.
From the text: However, the solids re-hydrate equally easily when exposed to R.H. greater than 10%. […] The behavior of form II during this experiment was typical of a highly crystalline channel hydrate/solvate.

Solubility, 70/30 ACN/EtOH 3A wt. % S-[2-[(1-Iminoethyl)amino]ethyl]-2-methyl-L-cysteine ([1]; 5 ° C.): 0.679 wt. %
Solubility, 70/30 ACN/EtOH 3A wt. % S-[2-[(1-Iminoethyl)amino]ethyl]-2-methyl-L-cysteine ([1]; 25 ° C.): 0.737 wt. %
Solubility, 90/10 ACN/EtOH 3A wt. % S-[2-[(1-Iminoethyl)amino]ethyl]-2-methyl-L-cysteine ([1]; 5 ° C.): 0.169 wt. %
Solubility, 90/10 ACN/EtOH 3A wt. % S-[2-[(1-Iminoethyl)amino]ethyl]-2-methyl-L-cysteine ([1]; 25 ° C.): 0.135 wt. %
Concentration in the solution phase, S-[2-[(1-Iminoethyl)amino]ethyl]-2-methyl-L-cysteine [2]: 0.613 wt %
Moisture gain ([3]; between 10 and 70% R.H.): ~2.5%
Moisture gain ([3]; between 70 and 90% R.H.): ~4.5%
Substance: S-[2-[(1-Iminoethyl)amino]ethyl]-2-methyl-L-cysteine maleate crystalline salt Form II
Cycling between sorption and de-sorption cycles ([3]; DVS moisture balance): did not show any hysteresis or loss of crystallinity
